Data: patent US4508663A, “Process for preparing thiosulfenamide derivatives of N-phosphonomethylglycinonitriles” (Monsanto Company, priority 1983, dated 1985)

What was measured:
Assay in all cases: post-emergence herbicidal activity, greenhouse
Type in all cases: in vivo
[1] = test system: Downy Brome
Procedure, shortened: (§1)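 Plants grown from seed or perennial propagules in greenhouse soil pans were sprayed at two to three weeks with compound solution or suspension containing about 0.4% emulsifier, at the stated application rates. Injury relative to untreated controls was scored at approximately two and four weeks after treatment on a post-emergence activity index.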

[2] = test system: Soybean; conditions: Table II, 4 WAT
Procedure, shortened: as §1

[3] = test system: Velvetleaf
Procedure, shortened: as §1

[4] = test system: Canada Thistle; conditions: Table I
Procedure, shortened: as §1

[5] = test system: Johnsongrass; conditions: Table I
Procedure, shortened: as §1

[6] = test system: Smartweed
Procedure, shortened: as §1

[7] = test system: Wheat; conditions: Table II, 4 WAT
Procedure, shortened: as §1

[8] = test system: Panicum Spp; conditions: Table II, 4 WAT
Procedure, shortened: as §1

[9] = test system: Yellow Nutsedge; conditions: Table I
Procedure, shortened: as §1

[10] = test system: Crabgrass; conditions: Table II, 4 WAT
Procedure, shortened: as §1

[11] = test system: Cocklebur
Procedure, shortened: as §1

[12] = test system: Sorghum; conditions: Table II, 4 WAT
Procedure, shortened: as §1

[13] = test system: Lambsquarters
Procedure, shortened: as §1

[14] = test system: Sugar Beet; conditions: Table II, 4 WAT
Procedure, shortened: as §1

[15] = test system: Morningglory
Procedure, shortened: as §1

[16] = test system: Quackgrass; conditions: Table I
Procedure, shortened: as §1

[17] = test system: Hemp Sesbania; conditions: Table II, 4 WAT
Procedure, shortened: as §1

[18] = test system: Wild Buckwheat; conditions: Table II, 4 WAT
Procedure, shortened: as §1

[19] = test system: Rice; conditions: Table II, 4 WAT
Procedure, shortened: as §1

[20] = test system: Barnyardgrass
Procedure, shortened: as §1

SMILES: N#CCN(CP(=O)(Oc1ccccc1)Oc1ccccc1)SSc1cccc(C(F)(F)F)c1 [IV, Phosphonic acid, [[(cyanomethyl)[[3-(trifluoromethyl)phenyl]dithio]amino]methyl]-, diphenyl ester]
- post-emergence herbicidal activity index ([1]; Table I, 2 WAT, 5.6 kg/h): 1 (25-49% control)
- post-emergence herbicidal activity index ([1]; Table I, 2 WAT, 11.2 kg/h): 0 (0-24% control)
- post-emergence herbicidal activity index ([1]; Table I, 4 WAT, 5.6 kg/h): 1 (25-49% control)
- post-emergence herbicidal activity index ([1]; Table I, 4 WAT, 11.2 kg/h): 2 (50-74% control)
- post-emergence herbicidal activity index ([1]; Table II, 4 WAT, 1.12 kg/h): 0 (0-24% control)
- post-emergence herbicidal activity index ([1]; Table II, 4 WAT, 5.6 kg/h): 1 (25-49% control)
- post-emergence herbicidal activity index ([2]; 1.12 kg/h): 1 (25-49% control)
- post-emergence herbicidal activity index ([2]; 5.6 kg/h): 1 (25-49% control)
- post-emergence herbicidal activity index ([3]; Table I, 2 WAT, 5.6 kg/h): 0 (0-24% control)
- post-emergence herbicidal activity index ([3]; Table I, 2 WAT, 11.2 kg/h): 0 (0-24% control)
- post-emergence herbicidal activity index ([3]; Table I, 4 WAT, 5.6 kg/h): 1 (25-49% control)
- post-emergence herbicidal activity index ([3]; Table I, 4 WAT, 11.2 kg/h): 1 (25-49% control)
- post-emergence herbicidal activity index ([3]; Table II, 4 WAT, 1.12 kg/h): 0 (0-24% control)
- post-emergence herbicidal activity index ([3]; Table II, 4 WAT, 5.6 kg/h): 1 (25-49% control)
- post-emergence herbicidal activity index ([4]; 2 WAT, 5.6 kg/h): 1 (25-49% control)
- post-emergence herbicidal activity index ([4]; 2 WAT, 11.2 kg/h): 1 (25-49% control)
- post-emergence herbicidal activity index ([4]; 4 WAT, 5.6 kg/h): 2 (50-74% control)
- post-emergence herbicidal activity index ([4]; 4 WAT, 11.2 kg/h): 1 (25-49% control)
- post-emergence herbicidal activity index ([5]; 2 WAT, 5.6 kg/h): 2 (50-74% control)
- post-emergence herbicidal activity index ([5]; 2 WAT, 11.2 kg/h): 1 (25-49% control)
- post-emergence herbicidal activity index ([5]; 4 WAT, 5.6 kg/h): 3 (75-99% control)
- post-emergence herbicidal activity index ([5]; 4 WAT, 11.2 kg/h): 1 (25-49% control)
- post-emergence herbicidal activity index ([6]; Table I, 2 WAT, 5.6 kg/h): 0 (0-24% control)
- post-emergence herbicidal activity index ([6]; Table I, 2 WAT, 11.2 kg/h): 1 (25-49% control)
- post-emergence herbicidal activity index ([6]; Table I, 4 WAT, 5.6 kg/h): 0 (0-24% control)
- post-emergence herbicidal activity index ([6]; Table I, 4 WAT, 11.2 kg/h): 4 (100% control)
- post-emergence herbicidal activity index ([6]; Table II, 4 WAT, 1.12 kg/h): 1 (25-49% control)
- post-emergence herbicidal activity index ([6]; Table II, 4 WAT, 5.6 kg/h): 2 (50-74% control)
- post-emergence herbicidal activity index ([7]; 1.12 kg/h): 0 (0-24% control)
- post-emergence herbicidal activity index ([7]; 5.6 kg/h): 1 (25-49% control)
- post-emergence herbicidal activity index ([8]; 1.12 kg/h): 0 (0-24% control)
- post-emergence herbicidal activity index ([8]; 5.6 kg/h): 2 (50-74% control)
- post-emergence herbicidal activity index ([9]; 2 WAT, 5.6 kg/h): 1 (25-49% control)
- post-emergence herbicidal activity index ([9]; 2 WAT, 11.2 kg/h): 1 (25-49% control)
- post-emergence herbicidal activity index ([9]; 4 WAT, 5.6 kg/h): 2 (50-74% control)
- post-emergence herbicidal activity index ([9]; 4 WAT, 11.2 kg/h): 2 (50-74% control)
- post-emergence herbicidal activity index ([10]; 1.12 kg/h): 3 (75-99% control)
- post-emergence herbicidal activity index ([10]; 5.6 kg/h): 3 (75-99% control)
- post-emergence herbicidal activity index ([11]; Table I, 2 WAT, 5.6 kg/h): 1 (25-49% control)
- post-emergence herbicidal activity index ([11]; Table I, 2 WAT, 11.2 kg/h): 2 (50-74% control)
- post-emergence herbicidal activity index ([11]; Table I, 4 WAT, 5.6 kg/h): 2 (50-74% control)
- post-emergence herbicidal activity index ([11]; Table I, 4 WAT, 11.2 kg/h): 2 (50-74% control)
- post-emergence herbicidal activity index ([11]; Table II, 4 WAT, 1.12 kg/h): 1 (25-49% control)
- post-emergence herbicidal activity index ([11]; Table II, 4 WAT, 5.6 kg/h): 3 (75-99% control)
- post-emergence herbicidal activity index ([12]; 1.12 kg/h): 2 (50-74% control)
- post-emergence herbicidal activity index ([12]; 5.6 kg/h): 3 (75-99% control)
- post-emergence herbicidal activity index ([13]; Table I, 2 WAT, 5.6 kg/h): 3 (75-99% control)
- post-emergence herbicidal activity index ([13]; Table I, 2 WAT, 11.2 kg/h): 3 (75-99% control)
- post-emergence herbicidal activity index ([13]; Table I, 4 WAT, 5.6 kg/h): 3 (75-99% control)
- post-emergence herbicidal activity index ([13]; Table I, 4 WAT, 11.2 kg/h): 4 (100% control)
- post-emergence herbicidal activity index ([13]; Table II, 4 WAT, 1.12 kg/h): 2 (50-74% control)
- post-emergence herbicidal activity index ([13]; Table II, 4 WAT, 5.6 kg/h): 4 (100% control)
- post-emergence herbicidal activity index ([14]; 1.12 kg/h): 0 (0-24% control)
- post-emergence herbicidal activity index ([14]; 5.6 kg/h): 0 (0-24% control)
- post-emergence herbicidal activity index ([15]; Table I, 2 WAT, 5.6 kg/h): 1 (25-49% control)
- post-emergence herbicidal activity index ([15]; Table I, 2 WAT, 11.2 kg/h): 1 (25-49% control)
- post-emergence herbicidal activity index ([15]; Table I, 4 WAT, 5.6 kg/h): 3 (75-99% control)
- post-emergence herbicidal activity index ([15]; Table I, 4 WAT, 11.2 kg/h): 2 (50-74% control)
- post-emergence herbicidal activity index ([15]; Table II, 4 WAT, 1.12 kg/h): 1 (25-49% control)
- post-emergence herbicidal activity index ([15]; Table II, 4 WAT, 5.6 kg/h): 2 (50-74% control)
- post-emergence herbicidal activity index ([16]; 2 WAT, 5.6 kg/h): 1 (25-49% control)
- post-emergence herbicidal activity index ([16]; 2 WAT, 11.2 kg/h): 0 (0-24% control)
- post-emergence herbicidal activity index ([16]; 4 WAT, 5.6 kg/h): 2 (50-74% control)
- post-emergence herbicidal activity index ([16]; 4 WAT, 11.2 kg/h): 0 (0-24% control)
- post-emergence herbicidal activity index ([17]; 1.12 kg/h): 0 (0-24% control)
- post-emergence herbicidal activity index ([17]; 5.6 kg/h): 1 (25-49% control)
- post-emergence herbicidal activity index ([18]; 1.12 kg/h): 0 (0-24% control)
- post-emergence herbicidal activity index ([18]; 5.6 kg/h): 2 (50-74% control)
- post-emergence herbicidal activity index ([19]; 1.12 kg/h): 0 (0-24% control)
- post-emergence herbicidal activity index ([19]; 5.6 kg/h): 2 (50-74% control)
- post-emergence herbicidal activity index ([20]; Table I, 2 WAT, 5.6 kg/h): 2 (50-74% control)
- post-emergence herbicidal activity index ([20]; Table I, 2 WAT, 11.2 kg/h): 2 (50-74% control)
- post-emergence herbicidal activity index ([20]; Table I, 4 WAT, 5.6 kg/h): 2 (50-74% control)
- post-emergence herbicidal activity index ([20]; Table I, 4 WAT, 11.2 kg/h): 2 (50-74% control)
- post-emergence herbicidal activity index ([20]; Table II, 4 WAT, 1.12 kg/h): 0 (0-24% control)
- post-emergence herbicidal activity index ([20]; Table II, 4 WAT, 5.6 kg/h): 3 (75-99% control)
